Assay results published in patent publication EP0051773A1, “Penicillins, their salts, process for their preparation and pharmaceutical compositions containing them” (Dr. Karl Thomae GmbH, priority 1980, dated 1982).
≈ marks a conversion by molar mass, not a printed value.

Columns and labels:
E.coli ATCC 11 775 = experiment: experimental intraperitoneal infection in mice, ED50 (survival); type: in vivo, Mäuse; settings: Escherichia coli, ATCC 11 / ATCC 1175, sc, 168 h; female NMRI mice, i.p. infection, s.c. application, treated once, 7 days observation
Description: (§1) Eine Reihe der erfindungsgemäßen Verbindungen wurde in vivo bei experimentellen Infektionen an Mäusen untersucht. Man verwendete als pathogene Bakterien E.coli ATCC 11 775 und Pseudomonas aeruginosa Walter. Es wurde eine intraperitoneale Infektion mit 0,2 ml einer 5%igen Mucinsuspension der Bakterien gesetzt. Dies entspricht etwa 2x10^6 Keime E.coli bzw. 8x10^5 Keime Pseudomonas/Maus. Weibliche Mäuse vom Stamm NMRI wurden in Gruppen von jeweils 10 Tieren aufgeteilt, zwei Gruppen blieben unbehandelt, die restlichen Gruppen wurden mit verschiedenen Dosen der jeweiligen erfindungsgemäßen Penicilline zur Bestimmung der ED50 (Dosis, bei der 50 % der Tiere überleben) behandelt. Bei der E.coli-Infektion wurde einmal therapiert. Bei der Pseudomonas-Infektion wurde dreimal behandelt.
(§2) Der Beobachtungszeitraum betrug in beiden Fällen 7 Tage. Die Ergebnisse dieser Teste mit repräsentativen Vertretern der erfindungsgemäßen Penicilline sind in der Tabelle 3 dargestellt.

[1] = test system: Pseudomonas aeruginosa Walter; experiment: as above; type: in vivo, Mäuse; settings: sc, 168 h, female NMRI mice, i.p. infection, s.c. application, treated three times, 7 days observation, read-out: ED50 Pseud. aerug. Walter
Description: as §1, §2

Proteus rettgeri BC 7 = experiment: serial dilution test in microtiter system (bacteriostasis, MIC); type: cell-based; settings: Providencia rettgeri, BC7; liquid medium, 18 to 20 h at 37°C; read-out: MHK-Werte Prot. rettg. BC 7
Description: (§3) Für die Untersuchungen wurde die Methode des Reihenverdünnungstestes im Mikrotitersystem angewandt. Die Prüfung der Substanzen auf Bakteriostase erfolgte in flüssigem Medium. Es wurde die Bakteriostasewirkung bei folgenden Konzentrationen untersucht.
(§4) Es wurde ein Nährboden folgender Zusammensetzung benutzt: 10 g Pepton, 8 g Fleischextrakt-Oxoid, 3 g Natriumschlorid, 2 g sek. Natriumphosphat werden mit dest. Wasser auf 1000 ml aufgefüllt (pH 7,2-7,4). Lediglich bei der Testung gegen Streptokokken wurde 1% Glucose hinzugefügt. Das Alter der Primärkulturen betrug etwa 20 Stunden. Die Einstellung der Keimsuspension erfolgte am Photometer (nach "Eppendorf") (Reagenzglas-Durchmesser 14 mm, Filter 546 nm) anhand der Trübung einer Bariumsulfat-Vergleichssuspension, die durch eine Bariumsulfat-Aufschwemmung erzeugt wurde, welche durch die Zugabe von 3,0 ml 1%ige Bariumchloridlösung in 97 ml 1%ige Schwefelsäure entstand. Nach der Einstellung wurden Streptococcus Aronson im Verhältnis 1:15 und die übrigen Testkeime im Verhältnis 1:1500 mit einer Kochsalzlösung weiter verdünnt.
(§5) 16 mg der jeweiligen Substanz wurden in 10 ml-Meßkolben eingewogen und mit dem Lösungsmittel bis zur Marke aufgefüllt. Die weitere Verdünnungsreihe wurde mit destilliertem Wasser oder dem jeweiligen Lösungsmittel hergestellt.
(§6) Die Vertiefungen der Mikrotiterplatten wurden mit 0,2 ml Nährmedium, 0,01 ml der entsprechenden Substanzverdünnung und mit einem Tropfen Keimsuspension (0,01 ml) beschickt und 18 bis 20 Stunden bei 37°C bebrütet. Eine Lösungsmittelkontrolle wurde stets mitgeführt.
(§7) Die Ablesung wurde makroskopisch vorgenommen, wobei die jeweilige Grenkonzentration (= niedrigste noch bakteriostatisch wirksame Konzentration) ermittelt wurde.
(§8) Als Testorganismen wurden benützt: - Staphylococcus aureus SG 511, Escherichia coli ATCC 11 775, Pseudomonas aeruginosa Hamburgensis und Walter, Serratia marcescens ATCC 13 880, Klebsiella pneumoniae ATCC 10 031 und BC 6, Proteus mirabilis Hamburgensis, Proteus rettgeri BC 7 und Enterobacter cloacae ATCC 13 047.
(§9) In der folgenden Tabelle 2 sind die ermittelten minimalen Hemmkonzentrationen (MIC) für typische Vertreter der erfindungsgemäßen Verbindungen aufgeführt, wobei sich die Ziffern auf die Penicilline der Tabelle 1 Seite 18 beziehen.

[2] = test system: Pseudomonas aeruginosa Hamburgensis; experiment: as above; type: cell-based; settings: liquid medium, 18 to 20 h at 37°C, read-out: MHK-Werte Pseud. aerug. Hbg.
Description: as §3, §4, §5, §6, §7, §8, §9

[3] = test system: Enterobacter cloacae ATCC 13 047; experiment: as above; type: cell-based; settings: ATCC13, liquid medium, 18 to 20 h at 37°C, read-out: MHK-Werte Eb. cloacae 13 047
Description: as §3, §4, §5, §6, §7, §8, §9

[4] = test system: Escherichia coli ATCC 11 775; experiment: as above; type: cell-based; settings: ATCC11, liquid medium, 18 to 20 h at 37°C, read-out: MHK-Werte E.coli ATCC 11 755
Description: as §3, §4, §5, §6, §7, §8, §9

[5] = test system: Klebsiella pneumoniae ATCC 10 031; experiment: as above; type: cell-based; settings: ATCC10, liquid medium, 18 to 20 h at 37°C, read-out: MHK-Werte Kl. pneum. ATCC 10 031
Description: as §3, §4, §5, §6, §7, §8, §9

[6] = test system: Serratia marcescens ATCC 13 880; experiment: as above; type: cell-based; settings: ATCC13, liquid medium, 18 to 20 h at 37°C, read-out: MHK-Werte Serr. marcesc. ATCC 13 880
Description: as §3, §4, §5, §6, §7, §8, §9

[7] = test system: Klebsiella pneumoniae BC 6; experiment: as above; type: cell-based; settings: BC6, liquid medium, 18 to 20 h at 37°C, read-out: MHK-Werte Kl. pneum. BC 6
Description: as §3, §4, §5, §6, §7, §8, §9

[8] = test system: Proteus mirabilis Hamburgensis; experiment: as above; type: cell-based; settings: liquid medium, 18 to 20 h at 37°C, read-out: MHK-Werte Prot. mir. Hbg.
Description: as §3, §4, §5, §6, §7, §8, §9

[9] = test system: Staphylococcus aureus SG 511; experiment: as above; type: cell-based; settings: SG511, liquid medium, 18 to 20 h at 37°C, read-out: MHK-Werte Staph. aureus SG 511
Description: as §3, §4, §5, §6, §7, §8, §9

[10] = test system: Pseudomonas aeruginosa Walter; experiment: as above; type: cell-based; settings: liquid medium, 18 to 20 h at 37°C, read-out: MHK-Werte Pseud. aerug. Walter
Description: as §3, §4, §5, §6, §7, §8, §9

SMILES | MIC (Proteus rettgeri BC 7) [µg/mL] | MIC [2] [µg/mL] | MIC [3] [µg/mL] | MIC [4] [µg/mL] | MIC [5] [µg/mL] | MIC [6] [µg/mL] | MIC [7] [µg/mL] | MIC [8] [µg/mL] | MIC [9] [µg/mL] | MIC [10] [µg/mL] | ED50 (E.coli ATCC 11 775) [mg/kg] | ED50 [1] [mg/kg]
CC1(C)SC2C(NC(=O)C(NC(=O)Nc3cnc(Nc4ccc(NC(N)=O)cc4)nc3O)c3ccc(O)cc3)C(=O)N2C1C(=O)O (centres unmarked) [Verbindung 43] | 1 (≈ 1.53 µM) | 1 (≈ 1.53 µM) | 4 (≈ 6.14 µM) | 0.5 (≈ 0.767 µM) | 8 (≈ 12.3 µM) | 0.5 (≈ 0.767 µM) | 8 (≈ 12.3 µM) | 0.06 (≈ 0.0921 µM) | 0.5 (≈ 0.767 µM) | 1 (≈ 1.53 µM) | 5.6 | 
CC1(C)S[C@@H]2[C@H](NC(=O)[C@H](NC(=O)N3CCN(S(C)(=O)=O)C3=O)c3ccccc3)C(=O)N2[C@H]1C(=O)O [B, Mezlocillin, reference compound] | 1 (≈ 1.85 µM) | 16 (≈ 29.7 µM) | 4 (≈ 7.41 µM) | 2 (≈ 3.71 µM) | 4 (≈ 7.41 µM) | 0.5 (≈ 0.927 µM) | 4 (≈ 7.41 µM) | 0.25 (≈ 0.463 µM) | 0.25 (≈ 0.463 µM) | 32 (≈ 59.3 µM) | > 100 | 
CN(C)S(=O)(=O)c1ccc(Nc2ncc(NC(=O)N[C@@H](C(=O)N[C@@H]3C(=O)N4[C@@H]3SC(C)(C)[C@@H]4C(=O)O)c3ccccc3)c(O)n2)cc1 [Verbindung 14] |  |  |  |  |  |  |  |  |  |  | 4.2 | 8.5

More lines, in order of falling MIC (Proteus rettgeri BC 7), values ahead:

MIC (Proteus rettgeri BC 7) [µg/mL] | MIC [2] [µg/mL] | MIC [3] [µg/mL] | MIC [4] [µg/mL] | MIC [5] [µg/mL] | MIC [6] [µg/mL] | MIC [7] [µg/mL] | MIC [8] [µg/mL] | MIC [9] [µg/mL] | MIC [10] [µg/mL] | SMILES | ED50 (E.coli ATCC 11 775) [mg/kg] | ED50 [1] [mg/kg]
0.5 (≈ 0.768 µM) | 1 (≈ 1.54 µM) | 1 (≈ 1.54 µM) | 0.25 (≈ 0.384 µM) | 2 (≈ 3.07 µM) | 0.25 (≈ 0.384 µM) | 2 (≈ 3.07 µM) | 0.06 (≈ 0.0922 µM) | 0.5 (≈ 0.768 µM) | 1 (≈ 1.54 µM) | CNC(=O)c1ccc(Nc2ncc(NC(=O)NC(C(=O)NC3C(=O)N4C3SC(C)(C)C4C(=O)O)c3ccc(O)cc3)c(O)n2)cc1 (centres unmarked) [Verbindung 37] | 2.8 | 8
0.5 (≈ 0.802 µM) | 2 (≈ 3.21 µM) | 1 (≈ 1.6 µM) | 0.25 (≈ 0.401 µM) | 4 (≈ 6.41 µM) | 1 (≈ 1.6 µM) | 8 (≈ 12.8 µM) | 0.06 (≈ 0.0962 µM) | 0.25 (≈ 0.401 µM) | 1 (≈ 1.6 µM) | CC1(C)S[C@@H]2[C@H](NC(=O)C(NC(=O)Nc3cnc(NCc4ccc(O)cc4)nc3O)c3ccc(O)cc3)C(=O)N2[C@H]1C(=O)O (some centres unmarked) [Verbindung 57] | 7.2 | 
0.25 (≈ 0.363 µM) | 0.5 (≈ 0.726 µM) | 0.5 (≈ 0.726 µM) | 0.12 (≈ 0.174 µM) | 1 (≈ 1.45 µM) | 0.12 (≈ 0.174 µM) | 1 (≈ 1.45 µM) | 0.03 (≈ 0.0436 µM) | 0.25 (≈ 0.363 µM) | 0.5 (≈ 0.726 µM) | CC1(C)SC2C(NC(=O)C(NC(=O)Nc3cnc(Nc4ccc(S(N)(=O)=O)c(O)c4)nc3O)c3ccc(O)cc3)C(=O)N2C1C(=O)O (centres unmarked) [Verbindung 44] | 2.1 | 3.6
0.12 (≈ 0.183 µM) | 1 (≈ 1.53 µM) | 2 (≈ 3.05 µM) | 0.12 (≈ 0.183 µM) | 0.5 (≈ 0.763 µM) | 0.12 (≈ 0.183 µM) | 0.5 (≈ 0.763 µM) | 0.06 (≈ 0.0915 µM) | 0.25 (≈ 0.381 µM) | 2 (≈ 3.05 µM) | CC1(C)SC2C(NC(=O)C(NC(=O)Nc3cnc(Nc4ccc(S(C)(=O)=O)cc4)nc3O)c3ccccc3)C(=O)N2C1C(=O)O (centres unmarked) [Verbindung 24] | 4.7 | 7.5
